From publication PMC12735921, “Evaluation of Antiproliferative Activity and Molecular Modeling Studies of Some Novel Benzimidazolone-Bridged Hybrid Compounds” (Pharmaceuticals, 2025)

Assays:
[1] = test system: A549, MCF-7, and HeLa cells; test: MTT cell viability assay, ranges stated across the cancer cell lines; assay type: cell-based; conditions: Homo sapiens, range over the three cancer cell lines, 48 h
Procedure: (§1) Cell viability assay was performed on the human lung cancer (A549) (ATCC CCL-185), human breast cancer (MCF-7) (ATCC-HTB-22), cervical cancer (HeLa) (ATCC-CCL-2), and human embryonic kidney 293 (HEK293) (ATCC-CRL-1573) cell lines, which were purchased from Deutsche Sammlung von Mikroorganismen und Zellkulturen (DSMZ, Braunschweig, Germany). The cells were maintained in Dulbecco’s modified Eagle’s medium (DMEM), supplemented with 10% fetal bovine serum (FBS), 2 mM L-glutamine, 100 U/mL penicillin, and 100 mg/L streptomycin (Biochrom AG, Berlin, Germany) at 37 °C in a humidified atmosphere of 5% CO2.
The cytotoxic effect was determined by the MTT (3-(4,5-dimethyl-2-thiazolyl)-2,5-diphenyl-2H-tetrazolium bromide) cell viability assay. Cells were seeded at an initial concentration of 1 × 10^5 cells/mL in 96-well microplates. […] After the incubation period, the formed formazan crystals were dissolved in dimethyl sulfoxide (DMSO), and the optical density (OD) of the compounds was measured at 570 nm using a spectrophotometer (BMG Labtech, Ortenberg, Germany). Cytotoxicity was expressed as an increase in the mean percentage of cytotoxicity relative to the unexposed control ± standard deviation (SD). […] IC50 was calculated by fitting the data to a sigmoidal curve using a four-parameter logistic model and was presented as an average of three independent measurements. […]

[2] = test system: HeLa cells; test: MTT cell viability assay, HeLa; assay type: cell-based, human
Procedure: as §1
(§2) The cytotoxic effect was determined by the MTT (3-(4,5-dimethyl-2-thiazolyl)-2,5-diphenyl-2H-tetrazolium bromide) cell viability assay. Cells were seeded at an initial concentration of 1 × 10^5 cells/mL in 96-well microplates. Cells were then treated with different concentrations (0.5, 5, 10, 25, 50, 100 and 200 µM) of the novel synthesized compounds for 48 h. After the incubation period, the formed formazan crystals were dissolved in dimethyl sulfoxide (DMSO), and the optical density (OD) of the compounds was measured at 570 nm using a spectrophotometer (BMG Labtech, Ortenberg, Germany). Cytotoxicity was expressed as an increase in the mean percentage of cytotoxicity relative to the unexposed control ± standard deviation (SD). […] Control values were set at 0% cytotoxicity. IC50 was calculated by fitting the data to a sigmoidal curve using a four-parameter logistic model and was presented as an average of three independent measurements. […] Doxorubicin was used as a positive control. Each sample was tested in triplicate.
(§3) To evaluate the selectivity of the tested compound(s) toward cancer cells over normal cells, the Selectivity Index (SI) was calculated using the following formula:SI = IC50 (normal cells)/IC50 (cancer cells)
(§4) An SI value greater than 2 was considered to indicate selective cytotoxicity, while values below 2 were interpreted as non-selective. Higher SI values reflect greater therapeutic potential due to reduced toxicity toward normal cells.

[3] = test system: HEK 293 cells; test: MTT cell viability assay, non-cancerous HEK 293; assay type: cell-based, human; conditions: Homo sapiens, HEK293, 48 h, mean ± SD, n = 3
Procedure: as §1
The cytotoxic effect was determined by the MTT (3-(4,5-dimethyl-2-thiazolyl)-2,5-diphenyl-2H-tetrazolium bromide) cell viability assay. Cells were seeded at an initial concentration of 1 × 10^5 cells/mL in 96-well microplates. Cells were then treated with different concentrations (0.5, 5, 10, 25, 50, 100 and 200 µM) of the novel synthesized compounds for 48 h. After the incubation period, the formed formazan crystals were dissolved in dimethyl sulfoxide (DMSO), and the optical density (OD) of the compounds was measured at 570 nm using a spectrophotometer (BMG Labtech, Ortenberg, Germany). Cytotoxicity was expressed as an increase in the mean percentage of cytotoxicity relative to the unexposed control ± standard deviation (SD). […] Control values were set at 0% cytotoxicity. IC50 was calculated by fitting the data to a sigmoidal curve using a four-parameter logistic model and was presented as an average of three independent measurements. […] Each sample was tested in triplicate.

[4] = test system: MCF-7 cells; test: MTT cell viability assay, MCF-7; assay type: cell-based, human
Procedure: as §1, §2, §3, §4

[5] = test system: A549 cells; test: MTT cell viability assay, A549; assay type: cell-based, human
Procedure: as §1, §2, §3, §4

SMILES: O=c1n(CN2CCN(c3ccc(Cl)cc3)CC2)c2cc(Cl)c(Cl)cc2n1CN1CCN(c2ccc(Cl)cc2)CC1 [Compound 9, 5,6-Dichloro-1,3-bis((4-(4-chlorophenyl)piperazin-1-yl)methyl)-1H-benzo[d]imidazol-2(3H)-one]
- IC50 [1]: 8.5 to 11.2 µM
- IC50 ([2]; Homo sapiens, HeLa, MTT, 48 h, mean ± SD, n = 3): 8.5 ± 0.49 µM
- HeLa Selectivity Index (SI) ([2]; SI = IC50 (HEK 293)/IC50 (HeLa)): 1.78
- IC50 [3]: 15.2 ± 0.87 µM
- IC50 ([4]; Homo sapiens, MCF7, MTT, 48 h, mean ± SD, n = 3): 11.2 ± 0.46 µM
- MCF-7 Selectivity Index (SI) ([4]; SI = IC50 (HEK 293)/IC50 (MCF-7)): 1.35
- IC50 ([5]; Homo sapiens, A549, MTT, 48 h, mean ± SD, n = 3): 9.6 ± 0.55 µM
- A549 Selectivity Index (SI) ([5]; SI = IC50 (HEK 293)/IC50 (A549)): 1.58
